From patent US6620841B1, “Aromatic heterocycle compounds having HIV integrase inhibiting activities” (Shionogi & Co., Ltd., priority 1998, dated 2003)
Counter-ions that a name gives are not always drawn.

Tests used:
HIV-1 integrase = HIV-1 integrase (Human immunodeficiency virus type 1 group M subtype B, UniProt P12497); experiment: HIV-1 integrase inhibition assay (microtiter plate, substrate/target DNA, OD 405 nm)
Description: (2) Calculations of the Percent Inhibitions (the IC50 Values of Test Compounds)
Streptavidin, obtained from Vector Laboratories, was dissolved in 0.1 M carbonate buffer (composition: 90 mM Na2CO3, 10 mM NaHCO3) at concentration of 40 μg/ml. After coating each well of microtiter plates (obtained from NUNC) with 50 μl of the above solution at 4° C. over night, each well was washed twice with PBS (composition: 13.7 mM NaCl, 0.27 mM KCl, 0.43 mM Na2HPO4, 0.14 mM KH2PO4) and blocked with 300 μl of 1% skim milk in PBS for 30 min. Additionally, each well was washed twice with PBS and added 50 μl of substrate DNA solution (2 pmol/μl). The microtiter plates were kept at room temperature for 30 min. Then, each well was washed twice with PBS and once with H2O.
Subsequently, in the each well prepared above were added 45 μl of the reaction buffer prepared from 12 μl of the buffer (composition: 150 mM MOPS (pH 7.2), 75 mM MnCl2, 50 mM 2-mercaptoethanol, 25% glycerol, 500 μg/ml bovine serum albumin-fraction V), 1 μl of target DNA (5 pmol/μl), and 32 μl of the distilled water. Additionally, 6 μl of either a test compound in DMSO or DMSO for positive control(PC) was mixed with the above reaction buffer, then 9 μl of an integrase solution (30 pmol) was added and mixed well. In the well of negative control (NC) was added 9 μl of the integrase dilution buffer (composition: 20 mM MOPS (pH7.2), 400 mM potassium glutamate, 1 mM EDTA, 0.1% NP-40, 20% glycerol, 1 mM DTT, 4M urea).
The microtiter plates were incubated at 30° C. for 1 hour. The reaction solution was removed and each well was washed twice with PBS. Subsequently, each well of the microtiter plates was filled with 100 μl of anti-digoxigenin antibody labeled with alkaline phosphatase (Sheep Fab fragment: obtained from Boehringer) and incubated at 30° C. for 1 hour. Then, each well was washed twice with 0.05% Tween20 in PBS and once with PBS. Next, 150 μl of the Alkaline phosphatase reaction buffer (composition: 10 mM p-Nitrophenylphosphate (obtained from Vector Laboratories), 5 mM MgCl2, 100 mM NaCl, 100 mM Tris-HCl (pH 9.5))was added in each well. […] The optical density (OD) at 405 nm of each well was measured and the percent inhibition was determined by the following expression.
The percent inhibition (%)=100[1-{(C abs.−NC abs.)/(PC abs.−NC abs.)}]
C abs.; the OD of the well of the compounds
NC abs.: the OD of the negative control (NC)
PC abs.: the OD of the positive control (PC)
IC50(μg/ml)=x−{(X−50)(x−y)/(X−Y)}

melting point	SMILES	IC50 (HIV-1 integrase) [nM]
210 to 213 °C	O=C(C=C(O)c1nc[nH]n1)c1c[nH]cc1Cc1ccc(F)cc1 [I-14, 1-[4-(4-Fluorobenzyl)pyrrol-3-yl]-3-hydroxy-3-(1H-1,2,4-triazol-3-yl)-propenone]	
185 to 192 °C	O=C(O)C(O)=CC(=O)c1cc[nH]c1 [I-22, 2-Hydroxy-4-oxo-4-(pyrrol-3-yl)-2-butenoic acid]	
186 to 188 °C	O=C(O)C(O)=CC(=O)c1ccn(S(=O)(=O)c2ccccc2)c1 [I-23, 4-(1-Benzenesulfonylpyrrol-3-yl)-2-hydroxy-4-oxo-2-butenoic acid]	
228 to 230 °C	O=C(C=C(O)c1nn[nH]n1)c1c[nH]cc1CCc1ccccc1 [I-25, 3-Hydroxy-1-[(4-(2-phenylethyl))pyrrol-3-yl]-3-(2H-tetrazol-5-yl)-propenone]	
178 to 181 °C	O=C(C=C(O)c1nn[nH]n1)c1cn(S(=O)(=O)c2ccccc2)cc1CCc1ccccc1 [I-31, 1-[[1-Benzenesulfonyl-4-(2-phenylethyl)]pyrrol-3-yl]-3-hydroxy-3-(2H-tetrazol-5-yl)-propenone]	
210 to 211 °C	CCCn1cc(Cc2ccc(F)cc2)c(C(=O)C=C(O)c2nc[nH]n2)c1 [I-35, 1-[[4-(4-Fluorobenzyl)-1-n-propyl]pyrrol-3-yl]-3-hydroxy-3-(1H-1,2,4-triazol-3-yl)-propenone]	
221 to 223 °C	O=C(C=C(O)c1nc[nH]n1)c1occc1Cc1ccc(F)cc1 [I-45, 1-[3-(4-Fluorobenzyl)furan-2yl]-3-hydroxy-3-(1H-1,2,4-triazol-3-yl)-propenone]	
171 to 174 °C	O=C(C=C(O)c1nn[nH]n1)c1occc1Cc1ccc(F)cc1 [I-46, 1-[3-(4-Fluorobenzyl)furan-2-yl]-3-hydroxy-3-(2H-tetrazol-5-yl)-propenone]	
170 to 177 °C	O=C(C=C(O)c1nc[nH]n1)c1ccoc1Cc1ccc(F)cc1 [I-49, 1-[2-(4-Fluorobenzyl)furan-3-yl]-3-hydroxy-3-(1H-1,2,4-triazol-3-yl)-propenone]	
150 to 153 °C	O=C(C=C(O)c1nn[nH]n1)c1ccoc1Cc1ccc(F)cc1 [I-52, 1-[2-(4-Fluorobenzyl)furan-3-yl]-3-hydroxy-3-(2H-tetrazol-5-yl)-propenone]	
121 to 123 °C	O=C(C=C(O)c1nn[nH]n1)c1ccc(Cc2ccc(F)cc2)o1 [I-55, 1-[5-(4-Fluorobenzyl)furan-2-yl]-3-hydroxy-3-(2H-tetrazol-5-yl)-propenone]	
	O=C(C=C(O)c1nc[nH]n1)c1ccc(Sc2ccc(F)cc2)o1 [I-68, 1-[5-(4-Fluorophenylthio)furan-2-yl]-3-hydroxy-3-(1H-1,2,4-triazol-3-yl)-propenone]	996
	O=C(C=C(O)c1ncc[nH]1)c1ccc(Cc2ccc(F)cc2)o1 [I-101, 1-[5-(4-Fluorobenzyl)furan-2-yl]-3-hydroxy-3-(1H-imidazol-2-yl)-propenone hydrochloride]	1700
	O=C(C=C(O)c1nccs1)c1ccc(Cc2ccc(F)cc2)o1 [I-104, 1-[5-(4-Fluorobenzyl)furan-2-yl]-3-hydroxy-3-(thiazol-2-yl)-propenone]	1760
84 to 85 °C	O=C(C=C(O)c1ccccn1)c1ccc(Cc2ccc(F)cc2)o1 [I-106, 1-[5-(4-Fluorobenzyl)furan-2-yl]-3-hydroxy-3-(pyridin-2-yl)-propenone]	
113 to 115 °C	NC(=O)C(O)=CC(=O)c1ccc(Cc2ccc(F)cc2)o1 [I-134, 4-[5-(4-Fluorobenzyl)furan-2-yl]-2-hydroxy-4-oxo-2-butenoic acid amide]	
> 250 °C	O=C(Nc1ccccn1)C(O)=CC(=O)c1ccc(Cc2ccc(F)cc2)o1 [I-135, 4-[5-(4-Fluorobenzyl)furan-2-yl]-2-hydroxy-4-oxo-2-butenoic acid pyridin-2-yl amide]	
198 °C (dec.)	O=C(Nc1nccs1)C(O)=CC(=O)c1ccc(Cc2ccc(F)cc2)o1 [I-136, 4-[5-(4-Fluorobenzyl)furan-2-yl]-2-hydroxy-4-oxo-2-butenoic acid thiazol-2-yl amide]	
132 to 134 °C	O=C(Nc1ccccc1)C(O)=CC(=O)c1ccc(Cc2ccc(F)cc2)o1 [I-137, 4-[5-(4-Fluorobenzyl)furan-2-yl]-2-hydroxy-4-oxo-2-butenoic acid phenyl amide]	
250 °C (dec.)	O=C(Nc1nc[nH]n1)C(O)=CC(=O)c1ccc(Cc2ccc(F)cc2)o1 [I-138, 4-[5-(4-Fluorobenzyl)furan-2-yl]-2-hydroxy-4-oxo-2-butenoic acid (1H-1,2,4-triazol-3-yl)amide]	
199 to 201 °C (dec.)	O=C(Nc1nncs1)C(O)=CC(=O)c1ccc(Cc2ccc(F)cc2)o1 [I-139, 4-[5-(4-Fluorobenzyl)furan-2-yl]-2-hydroxy-4-oxo-2-butenoic acid ([1,3,4]thiadiazol-2-yl)amide]	
108 to 109 °C	O=C(C=C(O)c1ccccn1)c1cnc(Cc2ccc(F)cc2)o1 [I-151, 1-[2-(4-Fluorobenzyl)oxazolyl-5-yl]-3-hydroxy-3-(pyridin-2-yl)-propenone]	
97 to 100 °C	O=C(C=C(O)c1ncccn1)c1cnc(Cc2ccc(F)cc2)o1 [I-152, 1-[2-(4-Fluorobenzyl)oxazolyl-5-yl]-3-hydroxy-3-(pyrimidin-2-yl)-propenone]	

SMILES	melting point	IC50 (HIV-1 integrase) [nM]
O=C(C=C(O)c1ncc[nH]1)c1ccc(Cc2ccc(F)cc2)o1 (as salt: hydrochloride) [I-101, 1-[5-(4-Fluorobenzyl)furan-2-yl]-3-hydroxy-3-(1H-imidazol-2-yl)-propenone hydrochloride]	186 to 191 °C	
O=C(/C=C(\O)c1nc[nH]n1)c1cc(C(=O)O)n(Cc2ccccc2)c1 [I-2, 1-[(1-Benzyl-5-carboxy)pyrrol-3-yl]-3-hydroxy-3-(1H-1,2,4-triazol-3-yl)-propenone]	264 to 265 °C	2960
COC(=O)C(O)=CC(=O)c1ccc(Cc2ccc(F)cc2)o1 [I-53, 4-[5-(4-Fluorobenzyl)furan-2-yl]-2-hydroxy-4-oxo-2-butenoic acid methyl ester]	102 to 104 °C	7890
O=C(O)C(O)=CC(=O)c1ccc(Cc2ccc(F)cc2)o1 [I-54, 4-[5-(4-Fluorobenzyl)furan-2-yl]-2-hydroxy-4-oxo-2-butenoic acid]	145 to 148 °C	827
Cc1nc(C(O)=CC(=O)c2ccc(Cc3ccc(F)cc3)o2)n[nH]1 [I-60, 1-[5-(4-Fluorobenzyl)furan-2-yl]-3-hydroxy-3-(5-methyl-1H-1,2,4-triazol-3-yl)-propenone]	179 to 182 °C	2110
Cc1cc(Cc2ccc(F)cc2)oc1C(=O)C=C(O)c1nc[nH]n1 [I-61, 1-[[5-(4-Fluorobenzyl)-3-methyl]furan-2-yl]-3-hydroxy-3-(1H-1,2,4-triazol-3-yl)-propenone]	191 to 192 °C	2080
O=C(C=C(O)c1nc[nH]n1)c1ccc(Sc2ccc(F)cc2F)o1 [I-70, 1-[5-(2,4-Difluorophenylthio)furan-2-yl]-3-hydroxy-3-(1H-1,2,4-triazol-3-yl)-propenone]	158 to 160 °C	1200
O=C(C=C(O)c1nc[nH]n1)c1ccc(Cc2ccc(F)cc2F)o1 [I-74, 1-[5-(2,4-Difluorobenzyl)furan-2-yl]-3-hydroxy-3-(1H-1,2,4-triazol-3-yl)-propenone]	171 to 173 °C	1300
O=C(C=C(O)c1nc[nH]n1)c1ccc(Cc2ccccc2Cl)o1 [I-80, 1-[5-(2-Chlorobenzyl)furan-2-yl]-3-hydroxy-3-(1H-1,2,4-triazol-3-yl)-propenone]	169 to 171 °C	1610
O=C(C=C(O)c1nc[nH]n1)c1ccc(Cc2cccs2)o1 [I-83, 3-Hydroxy-1-[[5-(thiophen-2-yl)methyl]furan-2-yl]-3-(1H-1,2,4-triazol-3-yl)-propenone]	207 to 208 °C	4980
O=C(C=C(O)c1nc[nH]n1)c1ccc(Cc2ccsc2)o1 [I-85, 3-Hydroxy-1-[[5-(thiophen-3-yl)methyl]furan-2-yl]-3-(1H-1,2,4-triazol-3-yl)-propenone]	210 to 211 °C	4650
O=C(C=C(O)c1nc[nH]n1)c1cc(Cl)c(Cc2ccc(F)cc2)o1 [I-86, 1-[4-Chloro-5-(4-fluorobenzyl)furan-2-yl]-3-hydroxy-3-(1H-1,2,4-triazol-3-yl)-propenone]	203 to 204 °C	1440
O=C(C=C(O)c1nc[nH]n1)c1ccc(Cc2ccsc2Cl)o1 [I-91, 1-[[5-(2-Chlorothiophen-3-yl)methyl]furan-2-yl]-3-hydroxy-3-(1H-1,2,4-triazol-3-yl)-propenone]	105 to 106 °C	1790
O=C(C=C(O)c1nc[nH]n1)c1ccc(C(O)c2ccc(F)cc2)o1 (stereo not shown) [I-94, 1-[5-(4-Fluorophenyl-hydroxy-methyl)furan-2-yl]-3-hydroxy-3-(1H-1,2,4-triazol-3-yl)-propenone]	191 to 192 °C (dec.)	4860
Cc1nc(C(O)=CC(=O)c2ccc(Cc3ccc(F)cc3)o2)cs1 [I-96, 1-[5-(4-Fluorobenzyl)furan-2-yl]-3-hydroxy-3-(2-methylthiazol-4-yl)-propenone]	96 to 98 °C	2450
COCc1nc(C(O)=CC(=O)c2ccc(Cc3ccc(F)cc3)o2)n[nH]1 [I-97]	167 to 168 °C	1710
CCc1nc(C(O)=CC(=O)c2ccc(Cc3ccc(F)cc3)o2)n[nH]1 [I-98, 3-(5-Ethyl-1H-1,2,4-triazol-3-yl)-1-[5-(4-fluorobenzyl)furan-2-yl]-3-hydroxy-propenone]	204 to 205 °C	1350
CC(C)c1nc(C(O)=CC(=O)c2ccc(Cc3ccc(F)cc3)o2)n[nH]1 [I-99, 1-[5-(4-Fluorobenzyl)furan-2-yl]-3-hydroxy-3-(5-isopropyl-1H-1,2,4-triazol-3-yl)-propenone]	146 to 147 °C	1860
